Reference: US11401510B2, “Generation of airway basal stem cells from human pluripotent stem cells” (TRUSTEES OF BOSTON UNIVERSITY, priority 2020, dated 2022)

Experiments:
[1] = target: CFTR (F508del) in ALI cultures generated from CF iPSCs (Homo sapiens, UniProt P13569, DEL508-508); assay: Ussing chamber analysis of CFTR-dependent current, CF ALI cultures; assay type: cell-based; conditions: CF (F508del homozygous) iPSC-derived ALI cultures, after amiloride
Procedure: Pre- and post-gene corrected paired syngeneic iPSC clones (hereafter CF and Corr CF) were differentiated into iBCs in the present protocol, sorted using the present antibody-based-method and generated ALI cultures composed of BCs, SCs, and MCCs (FIG. 6A). CFTR-dependent current, representing ion flux regulated by apically localized CFTR, was measured using the gold-standard Ussing chamber approach.
Ussing chamber experiments were performed on EasyMount Ussing Chamber Systems at voltage clamp mode, and Acquiciliare™ & Analyze software (Physiologic Instruments) was employed to record and analyze data. […] Subsequently, 10 pM forskolin (Sigma) were administered to stimulate chloride current. […] For BU3 NGPT derived ALI, 5 pM VX-770, CFTR modulator, was treated subsequent to forskolin. The resulting change in short circuit current was calculated as DIsc. The data were expressed in mean±SD.

[2] = target: CFTR in ALI cultures generated from corrected CF iPSCs (Corr CF) (Homo sapiens, UniProt P13569); assay: Ussing chamber analysis of CFTR-dependent current, corrected CF ALI cultures; conditions: Corr CF (gene-corrected) iPSC-derived ALI cultures, after amiloride; mean±SD, n=3
Procedure: For CF modeling, gene editing was used to correct the F508del CFTR mutation. Pre- and post-gene corrected paired syngeneic iPSC clones (hereafter CF and Corr CF) were differentiated into iBCs in the present protocol, sorted using the present antibody-based-method and generated ALI cultures composed of BCs, SCs, and MCCs (FIG. 6A). CFTR-dependent current, representing ion flux regulated by apically localized CFTR, was measured using the gold-standard Ussing chamber approach.
Ussing chamber experiments were performed on EasyMount Ussing Chamber Systems at voltage clamp mode, and Acquiciliare™ & Analyze software (Physiologic Instruments) was employed to record and analyze data. Briefly, Transwell inserts were mounted into chambers and bathed in low chloride Ringer's solution (1.2 mM NaCl, 140 mM Na-gluconate, 25 mM NaHCO3, 3.33 mM KH2PO4, 0.83 mM K2HPO4, 1.2 mM CaCl2, 1.2 mM MgCl2, 10 mM glucose) at apical and Ringer's solution (120 mM NaCl, 25 mM NaHCO3, 3.33 mM KH2PO4, 0.83 mM K2HPO4, 1.2 mM CaCl2, 1.2 mM MgCl2, 10 mM glucose) at basolateral side of monolayer. After base line is stabilized, 100 pM amiloride (Sigma) applied to both sides of the chamber to carry out complete inhibition of ENaC (Epithelial sodium channel). Subsequently, 10 pM forskolin (Sigma) were administered to stimulate chloride current. […] The resulting change in short circuit current was calculated as DIsc. […]

[3] = tested on: BU3 NGPT iBC-derived ALI cultures; assay: Mucus cell metaplasia model: IL-13 treatment of iBC-derived ALI cultures; assay type: cell-based, human
Procedure: Human airway epithelium has diverse biologic and physiologic roles, some of which are uniquely affected by disease. it was tested whether iBC-derived ALI cultures could recapitulate features of the three airway disorders with distinct epithelial characteristics: (1) mucus cell metaplasia in asthma; (2) abnormal ion-flux seen in CF; and (3) defective ciliary beating seen in PCD. First, it was tested whether iBC-derived ALI cultures could recapitulate the mucus cell metaplasia seen in asthma. Interleukin-13 (IL-13) is an inflammatory cytokine in asthma and can induce mucus metaplasia. A number of studies, in mice and primary human airway epithelial cell cultures, have found IL-13 leads to increased MUC5AC+ cell numbers via the activation of STAT6 and SPDEF, at the expense of MCCs and MUC5B+ cell frequencies (Kondo et al., 2002; Seibold, 2018; Woodruff et al., 2009).
BU3 NGPT iBSC-derived ALI culture was prepared as described above. Ten days after air-lifted, cells were treated with 10 ng/ml IL-13 and cultured for 10 days prior to the assessments. Mucus cell metaplasia was assessed by immunofluorescence staining for the increment of MUC5AC expressing cells or gene expression changes via qRT-PCR. Quantification of MUC5AC+ cells was performed using ImageJ™ software by manually counting MUC5AC+ cells in 3 randomly selected fields per well (n=3 wells per condition).
RNA was extracted by first lysing cells in QIAzol (QIAGEN) and subsequently using the RNeasy Mini kit (QIAGEN). Taqman Fast Universal PCR mastermix (Applied Biosystems) were used to reverse transcribe RNA into cDNA and analyzed during 40 cycles of real time PCR using Taqman probes (Applied Biosystems). Relative gene expression, normalized to 18S control, was calculated as fold change in 18S-normalized gene expression, over baseline, using the 2(-DDCT) method. Baseline, defined as fold change=1, was set to undifferentiated iPSCs. If undetected, a cycle number of 40 was assigned to allow fold change calculations.

[4] = IL-13 treated vs untreated, qRT-PCR

Chain of CFTR (F508del) in ALI cultures generated from CF iPSCs (P13569 with tags, fused parts or gaps DEL508-508): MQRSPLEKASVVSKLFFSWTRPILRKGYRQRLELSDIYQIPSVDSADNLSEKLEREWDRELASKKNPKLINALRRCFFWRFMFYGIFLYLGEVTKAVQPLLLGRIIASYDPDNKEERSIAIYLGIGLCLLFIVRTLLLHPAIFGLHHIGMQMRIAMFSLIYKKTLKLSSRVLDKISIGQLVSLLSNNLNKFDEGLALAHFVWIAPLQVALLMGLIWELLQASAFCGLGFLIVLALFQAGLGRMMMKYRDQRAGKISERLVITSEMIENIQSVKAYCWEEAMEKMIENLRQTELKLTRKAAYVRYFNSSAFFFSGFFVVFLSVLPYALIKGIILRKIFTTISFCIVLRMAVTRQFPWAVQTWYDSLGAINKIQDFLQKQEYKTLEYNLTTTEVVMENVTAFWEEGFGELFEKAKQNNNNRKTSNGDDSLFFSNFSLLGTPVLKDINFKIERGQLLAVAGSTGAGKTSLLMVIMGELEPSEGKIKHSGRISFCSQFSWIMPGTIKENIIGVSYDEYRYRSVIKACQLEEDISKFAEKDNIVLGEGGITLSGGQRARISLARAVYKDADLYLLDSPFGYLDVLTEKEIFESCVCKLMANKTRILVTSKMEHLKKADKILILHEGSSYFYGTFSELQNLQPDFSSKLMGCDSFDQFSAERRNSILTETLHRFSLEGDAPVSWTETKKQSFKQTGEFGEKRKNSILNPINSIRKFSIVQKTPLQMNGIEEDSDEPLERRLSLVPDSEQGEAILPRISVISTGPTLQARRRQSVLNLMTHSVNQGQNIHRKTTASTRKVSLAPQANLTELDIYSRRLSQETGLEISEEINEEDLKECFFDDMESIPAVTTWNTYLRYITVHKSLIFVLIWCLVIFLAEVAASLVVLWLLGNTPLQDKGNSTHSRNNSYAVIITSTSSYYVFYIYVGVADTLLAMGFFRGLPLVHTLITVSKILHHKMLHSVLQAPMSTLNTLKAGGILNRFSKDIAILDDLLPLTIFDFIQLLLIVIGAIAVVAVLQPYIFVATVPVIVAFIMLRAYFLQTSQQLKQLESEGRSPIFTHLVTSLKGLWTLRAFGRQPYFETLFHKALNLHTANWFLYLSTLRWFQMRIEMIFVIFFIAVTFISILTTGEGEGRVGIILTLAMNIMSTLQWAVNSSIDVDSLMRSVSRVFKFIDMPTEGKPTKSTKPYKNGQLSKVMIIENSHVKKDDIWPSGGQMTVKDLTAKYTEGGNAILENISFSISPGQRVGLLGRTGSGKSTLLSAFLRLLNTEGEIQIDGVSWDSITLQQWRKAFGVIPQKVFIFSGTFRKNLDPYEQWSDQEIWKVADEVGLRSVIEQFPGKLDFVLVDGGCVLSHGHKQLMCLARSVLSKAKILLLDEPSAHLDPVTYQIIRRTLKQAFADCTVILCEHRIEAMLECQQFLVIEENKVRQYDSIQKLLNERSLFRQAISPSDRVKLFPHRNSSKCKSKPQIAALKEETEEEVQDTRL
Chain of CFTR in ALI cultures generated from corrected CF iPSCs (Corr CF) (P13569 whole entry): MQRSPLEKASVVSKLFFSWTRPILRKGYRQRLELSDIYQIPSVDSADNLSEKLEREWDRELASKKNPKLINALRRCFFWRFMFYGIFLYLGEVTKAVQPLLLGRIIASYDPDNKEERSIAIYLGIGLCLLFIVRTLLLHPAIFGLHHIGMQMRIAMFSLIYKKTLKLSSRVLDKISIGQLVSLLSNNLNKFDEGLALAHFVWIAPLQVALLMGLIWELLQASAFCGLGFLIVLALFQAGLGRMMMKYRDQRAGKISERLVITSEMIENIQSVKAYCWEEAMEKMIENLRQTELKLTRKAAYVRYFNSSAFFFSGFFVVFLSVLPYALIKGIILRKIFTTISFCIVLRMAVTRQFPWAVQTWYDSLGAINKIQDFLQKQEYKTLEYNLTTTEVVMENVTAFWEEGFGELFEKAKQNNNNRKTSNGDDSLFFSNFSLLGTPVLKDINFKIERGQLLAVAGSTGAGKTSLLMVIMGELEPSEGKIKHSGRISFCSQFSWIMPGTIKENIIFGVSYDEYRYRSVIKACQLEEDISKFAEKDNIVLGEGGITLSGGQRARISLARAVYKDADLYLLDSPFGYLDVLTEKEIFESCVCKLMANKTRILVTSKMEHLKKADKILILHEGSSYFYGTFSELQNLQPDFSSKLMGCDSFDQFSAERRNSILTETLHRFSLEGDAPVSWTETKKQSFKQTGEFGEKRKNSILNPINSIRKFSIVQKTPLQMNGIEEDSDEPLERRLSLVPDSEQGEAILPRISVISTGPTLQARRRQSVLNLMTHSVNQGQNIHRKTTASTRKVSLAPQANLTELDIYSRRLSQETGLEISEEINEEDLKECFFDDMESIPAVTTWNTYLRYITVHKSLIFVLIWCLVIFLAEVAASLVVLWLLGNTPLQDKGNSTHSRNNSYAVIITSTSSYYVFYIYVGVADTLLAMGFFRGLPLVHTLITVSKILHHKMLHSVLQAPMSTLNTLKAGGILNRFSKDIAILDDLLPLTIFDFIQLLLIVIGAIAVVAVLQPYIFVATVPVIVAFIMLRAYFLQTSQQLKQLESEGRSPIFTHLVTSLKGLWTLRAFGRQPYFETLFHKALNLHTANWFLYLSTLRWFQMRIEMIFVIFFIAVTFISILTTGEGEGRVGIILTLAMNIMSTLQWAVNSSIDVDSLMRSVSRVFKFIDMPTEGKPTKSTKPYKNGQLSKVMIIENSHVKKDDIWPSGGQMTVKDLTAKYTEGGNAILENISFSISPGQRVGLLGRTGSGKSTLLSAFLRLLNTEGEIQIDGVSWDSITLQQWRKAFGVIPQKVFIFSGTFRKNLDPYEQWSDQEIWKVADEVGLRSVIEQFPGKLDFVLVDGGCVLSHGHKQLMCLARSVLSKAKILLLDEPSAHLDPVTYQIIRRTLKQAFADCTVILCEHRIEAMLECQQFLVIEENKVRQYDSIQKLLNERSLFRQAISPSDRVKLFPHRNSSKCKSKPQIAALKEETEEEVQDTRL

Substance | AIsc (change in short circuit current) [1] [pA/cm2] | AIsc (change in short circuit current) [2] [pA/cm2] | fold increase in numbers of MUC5AC+ cells ([3]; 10 ng/ml IL-13 added on day 10 of ALI differentiation, 10 days, vs untreated, p=0.002) [fold] | MUC5B expression [3, 4] | expression of goblet cell transcriptional regulator SPDEF [3, 4]
CFTRInh-172 | −0.8 | −43.2±2.5 |  |  | 
IL-13: inflammatory Th-2 cytokine in asthma that can induce mucus metaplasia |  |  | 1.75 | decrease | increased expression
